Test results: PubChem BioAssay AID179 (DTP/NCI, 2004)
Values joined by “and” are separate entries in the source; they are usually repeats but may differ in a detail not shown here. Identical values can stand only once. Active and inactive are the calls of the source.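 The calls were made as follows: active = compounds giving half or more protection of infected cells from virus-caused growth loss, again on retest; inactive = the rest.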 Where a SMILES comes first, the peptide text is derived from it. [ ]: non-standard residue; d: D form. The star is where a group is joined. mTyr = N[CH](Cc1cccc(O)c1)C(=O)O; Cbz = O=C(OCc1ccccc1)*; OBn = c1ccc(CO*)cc1

Tested on: CEM cells HIV-1 protection, formazan growth assay
Experiment: NCI AIDS Antiviral Assay
Details: for IC50: measured here: growth of uninfected CEM cells
Method in brief: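 Protection of CEM cells against HIV-1 measured as cell growth via soluble formazan read-out, with five concentrations tested on both infected and uninfected cells; failure to protect may reflect toxicity.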

Row | Compound | EC50 | IC50 | outcome
1 | C/C=C/C1C=Cc2ccccc2C1(C)C1=NC(C)(C)CO1 (stereo not drawn) | > 25.7 µM | > 25.7 µM | 
2 | Cc1cn(C2CC(O[Si](C)(C)C(C)(C)C)C(/C=[N+](/[O-])C(C)(C)C)O2)c(=O)[nH]c1=O (stereo not drawn) | > 120 µM | 33.9 µM | 
3 | O=C1NCC2(CCN(Cc3ccccc3)CC2)N1 | > 200 µM | > 200 µM | 
4 | CC(C(=O)N1C(=O)N(C(=O)C(C)C(O)c2ccccc2)C(c2ccccc2)C1c1ccccc1)C(O)c1ccccc1 (stereo not drawn) | > 200 µM | 28.2 µM | 
5 | O=S(=O)(O)c1ccc(OCCCCCCCCOc2ccc(S(=O)(=O)O)cc2)cc1 | > 14.5 µM | > 14.5 µM | 
6 | O=C1c2c(ccc3c2CCCC3)CC12Cc1ccccc1C2 | > 200 µM | 22.4 µM | 
7 | Cn1ccnc1CCc1ccc(Cl)cc1Cl | > 708 µM | 70.8 µM | 
8 | CCOC(=O)c1sc(SSc2sc(C(=O)OCC)c(C)c2[N+](=O)[O-])c([N+](=O)[O-])c1C | > 200 µM | 138 µM | 
9 | Cc1ccc(/C=N/n2c(=O)[nH]c3ccccc3c2=O)cc1 | > 200 µM | > 200 µM | 
10 | Cc1nc2c(nc1C)C(=O)C(N(C)C)=CC2=O |  |  | inactive
11 | OCC1(CO)COC2(CCCCC2)N1 | > 1230 µM | > 1230 µM | 
12 | COc1ccc(/C=C(\C#N)c2cccnc2)cc1OC | > 25.1 µM | 23.4 µM | 
13 | Cc1nnc(Sc2nc(C#N)c(C#N)nc2Sc2nnc(C)s2)s1 | > 200 µM | 8.13 µM | 
14 | NC(=O)c1ccccc1NC(=O)C(=O)C(C(=O)c1ccc(Cl)c(Cl)c1)C1OC(=O)c2ccccc21 (stereo not drawn) | > 339 µM | 21.4 µM | 
15 | O=c1c2cc([N+](=O)[O-])ccc2n2n1CCCC2 | > 200 µM | > 200 µM | 
16 | Cc1cn(C2CC(/[N+]([O-])=N/Nc3ccc([N+](=O)[O-])cc3)C(CO[Si](C)(C)C(C)(C)C)O2)c(=O)[nH]c1=O (stereo not drawn) | > 200 µM | 7.41 µM | 
17 | O=C1NC(=S)N/C1=C\c1ccc(Sc2ccccc2C(=O)O)s1 | > 200 µM | 110 µM | 
18 | Cc1ccc2c(c1)C(=O)C1(C2)Cc2ccc(C)cc2C1=O | 191 µM | > 200 µM | 
19 | O=c1[nH]c(=O)n(C2OC(CO)CC2F)cc1F (stereo not drawn) | > 200 µM | > 200 µM | 
20 | NC(=S)Nc1ccc2c(c1)oc1ccccc12 | > 200 µM | > 200 µM | 
21 | NCCCC[C@H](NC(=O)[C@H](CS)NC(=O)[C@@H](N)Cc1cnc[nH]1)C(=O)N[C@H](Cc1ccccc1)C(=O)N[C@@H](Cc1c[nH]c2ccccc12)C(=O)N[C@@H](Cc1c[nH]c2ccccc12)C(N)=O | > 200 µM | > 200 µM | 

Row | Compound | EC50 | IC50 | outcome
22 | CN(C)/C=C/c1ccncc1 | > 200 µM | 145 µM | 
23 | Cc1ccc(N2C(=O)/C(=C3\Sc4c(nc(C)n(C)c4=O)N3c3ccccc3)SC2=S)cc1 | > 3.02 µM | > 3.02 µM | 
24 | CC(C)(C)NN=C1C(C)(C)C(=NNC(C)(C)C)C1(C)C | > 316 µM | > 316 µM | 
25 | O=C1C(=O)C(CCCO)(CCCO)CCCCCCCCC1(CCCO)CCCO | > 200 µM | 102 µM | 
26 | Oc1cc(Br)cc2cc(Cl)cnc12 | > 200 µM | 1.02 µM | 
27 | Cc1c2c(cc3c(=O)ccn(CCN(C)C)c13)c(=O)ccn2CCN(C)C | > 135 µM | 1 µM | 
28 | O=S1(=O)CCC2=CC(C(F)(F)F)=CC(C(F)(F)F)=CN21 | > 81.3 µM | 0.38 µM | 
29 | O=C(O)c1ccc([N+](=O)[O-])c2cc3cnccc3nc12 | > 200 µM | 2.88 µM | 
30 | CCCCNC(=S)Nc1nc(C(=O)NNC(=S)Nc2ccccc2)cs1 | 58.9 µM | > 200 µM | 
31 | O=C1[C@@H]2C3SC(c4cc5ccccc5cc43)[C@@H]2C(=O)N1c1ccccc1 | > 72.4 µM | > 72.4 µM | 
32 | CC(=O)Nc1ccc(Nc2nc(=O)[nH]c(=O)[nH]2)cc1 | > 200 µM | > 200 µM | 
33 | COC(=O)/C=C1/C2CC3CC(C2)C(O)C1C3 (stereo not drawn) |  |  | inactive
34 | Clc1ccc(-c2nnc(-c3nsc4ccccc34)o2)cc1 | > 12 µM | > 12 µM | 
35 | COC1OC(CO)C(N=C(C)C)C1O (stereo not drawn) | > 200 µM | > 200 µM | 
36 | COC(=O)/C=C1\C[C@H]2O[C@@](O)(C1)[C@H](C)C(=O)O[C@H]1C[C@@H](C=C(C)C)O[C@@H](CC3(O)O[C@H](CC[C@H]2O)[C@@H](C)[C@]2(O)CC[C@@H](C)C(=O)C32)[C@H]1C (stereo partly drawn) |  |  | inactive
37 | CC(=O)C1=C(N=[N+]=[N-])c2cccc3cccc(c23)C1=O |  |  | inactive
38 | O=C(O)CC(c1ccccc1)c1ccccc1 | > 794 µM | 437 µM | 
39 | Cc1cc2ccccc2c[n+]1CC(=O)CC([O-])(C(F)(F)F)C(F)(F)F | > 200 µM | 95.5 µM | 
40 | COC1CC(CC(C)O)CN(C#N)CCc2c1[nH]c1ccccc21 (stereo not drawn) | > 79.4 µM | > 79.4 µM | 
41 | COC(=O)C(Cc1ccccc1)NC(=O)C(CNC(=O)OCc1ccccc1)C(=O)OCc1ccccc1 (stereo not drawn) | > 200 µM | > 200 µM and 148 µM | 
42 | CNc1c(Br)cc(/C=C2\C=Cc3ccccc32)cc1Br | > 9.55 µM | > 9.55 µM | 

Row | Compound | EC50 | IC50 | outcome
43 | COc1ccc(-c2cc[n+]([O-])c(C)c2C)c(OC)c1OC | > 871 µM | 83.2 µM | 
44 | Oc1ccc(O)c([P+](c2ccccc2)(c2ccccc2)c2ccccc2)c1 | > 200 µM | 30.2 µM | 
45 | CC(C)(C)CC1=COC(C=O)(CC(C)(C)C)CC1 (stereo not drawn) | > 102 µM | > 102 µM | 
46 | COc1ccccc1/C=C1/NC(=S)NC1=O | > 200 µM | > 200 µM | 
47 | CC#N.CC#N.COC(=O)[C@@H]1COC(=O)[N-]1.COC(=O)[C@@H]1COC(=O)[N-]1.COC(=O)[C@@H]1COC(=O)[N-]1.COC(=O)[C@@H]1COC(=O)[N-]1.[Rh+2].[Rh+2] | > 200 µM | > 200 µM | 
48 | CC1(C)CC(Br)(C(Br)c2ccccc2)C(=O)c2ccccc21 (stereo not drawn) | > 200 µM | 3.89 µM | 
49 | COC(=O)C(Cc1cccc(O)c1)NC(=O)C(CC(=O)OCc1ccccc1)NC(=O)OCc1ccccc1 (stereo not drawn) (Cbz-Asp(OBn)-[mTyr]-OMe; configuration not given here) | > 200 µM | 91.2 µM | 
50 | Cc1nn(-c2ccccc2)c2c1S(=O)(=O)c1ccccc1-2 | > 112 µM | 69.2 µM | 
51 | CC1NC(/C(=C/c2ccccc2O)NC(=O)c2ccccc2)OC1=O (stereo not drawn) | > 50.1 µM | > 50.1 µM | 
52 | O=C1C2CC=CCC2C(=O)N1n1c(Cc2ccccc2)n[nH]c1=O (stereo not drawn) | > 200 µM | > 200 µM | 
53 | COc1ccc(-c2nc(N)n(C)c2SSc2c(-c3ccc(OC)cc3)nc(N)n2C)cc1 | > 45.7 µM | 3.98 µM | 
54 | COC(=O)C(Cc1nc2ccc(Cl)cc2[nH]c1=O)/C(=N/NC(N)=O)C(=O)Nc1ccc(Cl)cc1 (stereo not drawn) | > 70.8 µM | > 70.8 µM | 
55 | NC(CCSSCCC(N)C(=O)NCC(=O)O)C(=O)NCC(=O)O (stereo not drawn) | > 64.6 µM | > 64.6 µM | 
56 | COc1ccc(C(=O)c2ccc(OC)c(S(=O)(=O)N(C)C)c2)cc1S(=O)(=O)N(C)C | > 79.4 µM | > 79.4 µM | 
57 | O=C(O)c1cc(Cc2cc(C(=O)O)c(O)c3ccccc23)c2ccccc2c1O | > 0.813 µM | > 0.813 µM | 
58 | Cc1c(C2CCSc3ccccc3N2)sc2ccccc12 (stereo not drawn) | > 200 µM | 148 µM | 
59 | COc1cc(/C=N/NC2=NCCN2)ccc1O | > 200 µM | > 200 µM | 
60 | Cc1ccc(S(=O)(=O)n2c(-c3ccccc3)c(-c3ccccc3)c3ccccc32)cc1 | > 50.1 µM | 38.9 µM | 
61 | CC(=O)C1C(=O)C(C(C)=O)C2C3C=CC(C3)C12 (stereo not drawn) | > 200 µM | 74.1 µM | 
